Results on 1 compound are retold here after paper PMC6017873 (Molecules : A Journal of Synthetic Chemistry and Natural …, 2018).

pIC50: −log10 of the molar value.

For test [1], the system named is U-373 cells. The experiment in a line: Sub-G1 fraction by PI flow cytometry, U-373. The class given is cell-based, human. The following applies: U-373, 50 µM, 72 h. Here is the method: (§1) Figure 2 Effect of eurochevalierine on cell cycle distribution. Cells were treated with 50 µM eurochevalierine for 72 h and then stained with propidium iodide (PI), and DNA content was measured by flow cytometry. (a) Cell cycle distribution profile in A-549 cells. Results of three independent experiments are represented on the same graph. (b) Quantification of the number of cells in sub-G1 fraction as a percentage of the total cell population. Results are expressed as mean ± SD of at least three independent experiments.
(§2) Cells were collected, fixed, and stained with the APO AF TUNEL detection kit (BD, Erembodegem, Belgium) allowing analysis of both apoptosis and cell cycle at the same time. The experiment was conducted accordingly to the procedure of the manufacturer. Data were obtained through flow cytometry with a Cell Lab Quanta apparatus (Analis, Suarlee, Belgium).

In a further test the target is HDAC3 (Homo sapiens, UniProt O15379). The test is described as follows: Selective in vitro HDAC activity assay, recombinant HDAC3. Particulars: 100 µM. The format is biochemical. On the procedure: (§3) (a) In vitro total HDAC activity was evaluated using K-562 nuclear extracts in the presence of various concentrations of eurochevalierine. (b) Selective in vitro HDAC activity assays were carried out using selected recombinant HDAC proteins in the presence of various concentrations of eurochevalierine. Results are reported as percent of DMSO vehicle control and expressed as the mean ± SD of three independent experiments. * and ** indicate p < 0.05 and p < 0.01 versus untreated cells, respectively.
Chain of HDAC3 (O15379 whole entry): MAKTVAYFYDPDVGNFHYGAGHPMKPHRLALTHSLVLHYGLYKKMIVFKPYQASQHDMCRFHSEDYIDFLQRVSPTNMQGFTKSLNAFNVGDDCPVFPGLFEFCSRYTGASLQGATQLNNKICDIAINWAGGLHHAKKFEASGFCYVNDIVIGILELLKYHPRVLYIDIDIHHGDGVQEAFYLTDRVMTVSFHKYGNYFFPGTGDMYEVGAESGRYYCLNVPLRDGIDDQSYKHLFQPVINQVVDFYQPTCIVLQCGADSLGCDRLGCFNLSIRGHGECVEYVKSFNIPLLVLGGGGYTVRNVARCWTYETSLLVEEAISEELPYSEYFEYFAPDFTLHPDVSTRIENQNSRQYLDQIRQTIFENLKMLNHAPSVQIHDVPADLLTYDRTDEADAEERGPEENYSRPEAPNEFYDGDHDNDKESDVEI
Chain of HDAC3 (Q9Y618 395-489 partner limits assumed): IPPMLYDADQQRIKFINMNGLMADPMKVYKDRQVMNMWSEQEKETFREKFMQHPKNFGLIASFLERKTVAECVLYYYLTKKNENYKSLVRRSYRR

Test [2] deals with panel of cancer cell lines. Further details: method as in PMID 22976482. Particulars: read-out: mean IC50 for the growth inhibition of cancer cells; cited from earlier work.
For the next test, the target named is T1, HDAC6 (Homo sapiens, UniProt Q9UBN7).
T1 sequence (Q9UBN7 1-1215): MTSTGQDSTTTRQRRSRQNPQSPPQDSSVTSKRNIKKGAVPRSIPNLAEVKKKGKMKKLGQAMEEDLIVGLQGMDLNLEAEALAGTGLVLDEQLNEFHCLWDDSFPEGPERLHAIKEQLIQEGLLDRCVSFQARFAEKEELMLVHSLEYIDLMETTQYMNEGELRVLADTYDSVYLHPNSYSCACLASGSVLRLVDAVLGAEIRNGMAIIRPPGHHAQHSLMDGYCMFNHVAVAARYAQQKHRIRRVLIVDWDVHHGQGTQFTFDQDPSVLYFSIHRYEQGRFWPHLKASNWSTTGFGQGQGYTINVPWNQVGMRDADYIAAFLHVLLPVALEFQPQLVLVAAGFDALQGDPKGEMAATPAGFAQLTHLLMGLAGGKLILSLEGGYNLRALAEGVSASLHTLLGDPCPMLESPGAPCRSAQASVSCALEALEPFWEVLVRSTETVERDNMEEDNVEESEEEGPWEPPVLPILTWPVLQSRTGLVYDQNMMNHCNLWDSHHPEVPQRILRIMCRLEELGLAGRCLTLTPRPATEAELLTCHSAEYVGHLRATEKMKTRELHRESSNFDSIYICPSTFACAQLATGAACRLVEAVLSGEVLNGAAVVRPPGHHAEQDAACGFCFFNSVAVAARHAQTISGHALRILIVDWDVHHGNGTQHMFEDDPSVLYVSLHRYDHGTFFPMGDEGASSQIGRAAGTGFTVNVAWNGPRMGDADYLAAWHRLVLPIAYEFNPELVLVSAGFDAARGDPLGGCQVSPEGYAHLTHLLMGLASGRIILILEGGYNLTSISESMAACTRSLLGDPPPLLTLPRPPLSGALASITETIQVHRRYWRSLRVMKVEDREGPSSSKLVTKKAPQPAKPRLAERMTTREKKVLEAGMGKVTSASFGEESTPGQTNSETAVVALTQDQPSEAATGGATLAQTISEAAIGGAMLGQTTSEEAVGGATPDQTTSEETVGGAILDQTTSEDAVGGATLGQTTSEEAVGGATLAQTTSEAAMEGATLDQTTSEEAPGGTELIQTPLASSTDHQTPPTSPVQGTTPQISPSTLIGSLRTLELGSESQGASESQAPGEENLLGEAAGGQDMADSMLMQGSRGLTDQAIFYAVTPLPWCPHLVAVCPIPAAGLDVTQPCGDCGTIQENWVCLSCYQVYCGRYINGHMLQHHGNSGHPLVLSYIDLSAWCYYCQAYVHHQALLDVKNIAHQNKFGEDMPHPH
The experiment in a line: Selective in vitro HDAC activity assay, recombinant HDAC6. The class given is biochemical. On the procedure: as §3

In another test the test system is B16-F10 cells. The test is described as follows: Sub-G1 fraction by PI flow cytometry, B16-F10. The class given is cell-based, murine. The following applies: B16-F10, 50 µM, 72 h.
The test system of test [3] is U-373 cells. The test is described as follows: Acetylation of sirtuin targets by Western blot, U-373. The format is cell-based, human. The following applies: U-373, 5 and 50 µM, 8 h. Here is the method: Figure 5 Effect of eurochevalierine on the acetylation status of sirtuin targets. SK-MEL-28, U-373, and A-549 cells were treated with 5 and 50 µM eurochevalierine (EU) for 8 h. Acetylation of histone H4 (AcH4), histone H3 at lysine 56 (AcH3K56), and α-tubulin (Ac α-tubulin) was analyzed via Western blot. β-actin and histone H1 were used as loading controls for the analysis of total and acid extracts, respectively. SAHA (S, 1 µM) was used as a reference HDAC inhibitor. Blots are representative of three independent experiments.
Total proteins were extracted using the MPER® reagent (Thermo-scientific, Erembodegem-Aalst, Belgium) supplemented by 1× protease inhibitor cocktail (Complete EDTA-free, Roche, Prophac, Luxembourg, Luxembourg) according to manufacturer’s instructions. Histones were extracted as previously described. Western blots were carried out as previously reported.
Corresponding secondary antibodies were from Santa Cruz Biotechnology.

The next test relates to A-549 cells. The test is described as follows: Sub-G1 fraction by PI flow cytometry, A-549. The class given is cell-based, human. The following applies: A-549, 50 µM, 72 h. On the procedure: as §1, §2
The target of another test is T2, HDAC11 (Homo sapiens, UniProt Q96DB2).
T2 sequence (Q96DB2 1-347): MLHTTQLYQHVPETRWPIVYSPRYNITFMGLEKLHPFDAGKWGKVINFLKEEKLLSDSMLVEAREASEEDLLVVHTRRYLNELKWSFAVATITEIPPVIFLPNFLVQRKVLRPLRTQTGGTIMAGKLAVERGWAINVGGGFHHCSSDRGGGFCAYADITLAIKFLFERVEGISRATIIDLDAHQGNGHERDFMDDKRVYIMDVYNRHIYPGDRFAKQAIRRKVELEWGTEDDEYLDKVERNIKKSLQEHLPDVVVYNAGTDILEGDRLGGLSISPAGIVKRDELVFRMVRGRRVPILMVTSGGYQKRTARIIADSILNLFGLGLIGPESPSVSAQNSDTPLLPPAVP
The test is described as follows: Selective in vitro HDAC activity assay, recombinant HDAC11. The class given is biochemical. Here is the method:
as §3

Another test has as its target HDAC1 (Homo sapiens, UniProt Q13547). The experiment in a line: Selective in vitro HDAC activity assay, recombinant HDAC1. The class given is biochemical. Particulars: 100 µM. On the procedure:
as §3

The target of the next test is HDAC2 (Homo sapiens, UniProt Q92769). The test is described as follows: Selective in vitro HDAC activity assay, recombinant HDAC2. The class given is biochemical. The following applies: 100 µM. Here is the method:
as §3

Chain of HDAC1 (Q13547 whole entry): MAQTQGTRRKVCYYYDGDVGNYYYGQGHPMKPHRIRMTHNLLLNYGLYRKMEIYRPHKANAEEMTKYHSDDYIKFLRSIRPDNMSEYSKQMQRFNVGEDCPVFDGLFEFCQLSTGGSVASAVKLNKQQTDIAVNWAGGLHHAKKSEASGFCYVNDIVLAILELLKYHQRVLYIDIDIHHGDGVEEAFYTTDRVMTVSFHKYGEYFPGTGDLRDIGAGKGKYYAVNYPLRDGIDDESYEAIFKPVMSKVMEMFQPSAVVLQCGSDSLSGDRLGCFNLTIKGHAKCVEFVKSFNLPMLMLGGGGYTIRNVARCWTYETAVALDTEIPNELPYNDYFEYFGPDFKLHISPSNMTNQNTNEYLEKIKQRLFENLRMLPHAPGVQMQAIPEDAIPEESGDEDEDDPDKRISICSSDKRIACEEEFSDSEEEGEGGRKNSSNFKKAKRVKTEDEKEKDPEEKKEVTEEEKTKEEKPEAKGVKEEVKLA
Chain of HDAC2 (Q92769 whole entry): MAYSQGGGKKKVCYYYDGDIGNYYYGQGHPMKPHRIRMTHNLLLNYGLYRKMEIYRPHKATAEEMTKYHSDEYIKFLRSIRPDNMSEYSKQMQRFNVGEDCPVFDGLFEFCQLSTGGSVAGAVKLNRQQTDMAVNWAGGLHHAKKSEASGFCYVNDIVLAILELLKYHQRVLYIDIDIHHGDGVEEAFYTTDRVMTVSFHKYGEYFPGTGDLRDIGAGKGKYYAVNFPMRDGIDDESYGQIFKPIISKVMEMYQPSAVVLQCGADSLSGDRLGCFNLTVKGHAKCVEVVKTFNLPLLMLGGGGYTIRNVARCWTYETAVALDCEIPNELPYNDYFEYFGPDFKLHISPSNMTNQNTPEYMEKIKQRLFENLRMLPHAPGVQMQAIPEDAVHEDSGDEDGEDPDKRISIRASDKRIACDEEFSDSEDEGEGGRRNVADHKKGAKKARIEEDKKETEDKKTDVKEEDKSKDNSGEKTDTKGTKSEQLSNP

Turning to `C=C(C)[C@@H]1CC[C@@H](C)[C@@]2(O)[C@@H]1C=C(C)[C@@H](OC(C)=O)[C@@H]2OC(=O)[C@H](CC(=O)c1ccccc1NC)NC=O` [Eurochevalierine, eurochevalierine], the sub-G1 fraction entry in the test with U-373 cells [1], in the test with B16-F10 cells and in the test on A-549 cells was “did not increase the sub-G1 fraction” each time. Further, at HDAC3, the “induction of HDAC3 activity” value came to 1.5 fold. Also, the pIC50 in test [2] is 4.55. Further, the inhibition at 100 µM is roughly 36% on HDAC6 and roughly 51% on HDAC11. Besides, in the test with U-373 cells [3], the “acetylation of sirtuin targets (AcH4, AcH3K56, Ac α-tubulin)” value was “robust and dose-dependent increase”. Besides, on HDAC1, the “effect on HDAC1 deacetylase activity” value is given as “without effect”. Further, at HDAC2, the “effect on HDAC2 deacetylase activity” value is reported as “without effect”.
